Measured values from patent US8629147B2, “Heterocyclic compounds useful in the treatment of neoplastic diseases, inflammatory disorders and immunomodulatory disorders” (ChemBridge Corporation, priority 2005, dated 2014).

Tests used:
[1] = biological target: T1, human IGF1R kinase domain (Homo sapiens, UniProt P08069); experiment: IGF1R tyrosine phosphorylation inhibition, Alphascreen phosphotyrosine PT66 assay; format: biochemical; settings: recombinant kinase domain, 1 hour co-incubation, 20 to 0.1 μM
T1 construct: human IGF1R precursor protein corresponding to the amino acids positions 974 through 1293; 6xHis; made in house; host or cells: SF9 insect cells, recombinant baculovirus (Bac-to-Bac System)
Description: Inhibition of IGF1R tyrosine phosphorylation was measured in the Alphascreen phosphotyrosine PT66 assay kit (Perkin Elmer Life sciences, Catalog number 6760602) according to the manufacturer's instructions. As a source of enzymatically active IGF1r kinase for this assay, SF9 insect cells were infected with recombinant baculovirus (Bac-to-Bac System, Invitrogen, Carlsbad, Calif.) encoding 6×His-tagged kinase domain portion of human IGF1R precursor protein corresponding to the amino acids positions 974 through 1293 (Abbott et al., 1992, J. Biol. Chem. 267:10759-10763) and recombinant kinase protein was purified to homogeneity using two-step chromatography on immobilized Ni^2+ resin (Ni-NTA) and ion-exchange Q-Sepharose column. Biotinylated poly glu-tyr 4:1 (CIS bio-international, catalog number 61GT0BLA) was used for the kinase substrate. Compounds were serially diluted to give a concentration range from 20 to 0.1 μM and co-incubated with IGF1r kinase, biotinylated peptide substrate and alphascreen components for 1 hour and then read in a Perkin-Elmer alphafusion plate reader. A plot of counts per minute versus log concentration of compounds was fitted to a sigmoidal dose response curve using Graphpad Prism software to generate IC50 values (see FIG. 1 for an example).

[2] = tested on: MCF7 human breast tumor cells; experiment: CellTiter-Glo luminescent cell viability assay, MCF7; format: cell-based; settings: 48 hours, 20 to 0.1 μM
Description: (§1) Cell viability of either MCF7 human breast tumor cells (American Type Culture Collection catalog #HTB 22) or NCI-H929 human plasmacytoma cells (ATCC catalog #CRL-9068) was assessed using the Promega CellTiter-Glo luminescent cell viability assay according to manufacturer's instructions. In brief, cells were plated at 10,000 cells per well in a clear bottom white 96 well microtiter plate (Costar catalog #3604) in 100 μL of cell growth medium. Compounds were then added to the cells to give final concentrations of compound ranging from 20 to 0.1 μM. Cells were incubated 48 hours after which 100 μL per well of celltiter-glo reagent was added and luminescence was measured in a BMG polarstar plate luminometer. A plot of counts per minute versus log concentration of compounds was fitted to a sigmoidal dose response curve using Graphpad Prism software to generate IC50 values.

[3] = tested on: NCI-H929 human plasmacytoma cells; experiment: CellTiter-Glo luminescent cell viability assay, NCI-H929; format: cell-based; settings: 48 hours, 20 to 0.1 μM
Description: as §1

T1 sequence (P08069 974-1293): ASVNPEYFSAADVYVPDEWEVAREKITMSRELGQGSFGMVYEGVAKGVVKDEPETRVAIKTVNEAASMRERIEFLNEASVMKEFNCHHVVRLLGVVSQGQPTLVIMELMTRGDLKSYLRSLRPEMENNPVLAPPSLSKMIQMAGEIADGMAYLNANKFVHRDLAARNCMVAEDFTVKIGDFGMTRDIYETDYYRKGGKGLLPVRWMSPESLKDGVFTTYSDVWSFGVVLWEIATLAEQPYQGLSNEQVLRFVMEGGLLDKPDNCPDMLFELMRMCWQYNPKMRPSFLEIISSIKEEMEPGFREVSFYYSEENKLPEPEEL

Row | IC50 [1] [µM] | IC50 [2] [µM] | IC50 [3] [µM] | SMILES
1 | ≤ 5 | 10 to 15 | 10 to 15 | CN1CCN(Cc2cccc(NC(=O)c3cc(N)n(-c4ncc5c(n4)-c4ccccc4CC5)n3)c2)CC1
2 | 10 to 15 | 10 to 15 | 10 to 15 | COc1ccc2c(c1)OCc1cnc(-n3cc(C(=O)NCCCc4ccncc4)c(N)n3)nc1-2
3 | ≤ 5 | 5 to 10 | ≤ 5 | CCN1CCC2(CCN(c3cc(C)c4nc(-c5c(NC[C@@H](O)c6cccc(Cl)c6)cc[nH]c5=O)[nH]c4c3)C2)C1 (stereo partly drawn)
4 | ≤ 5 | > 25 | 10 to 15 | Cc1cc(N2CCN(C)CC2)cc2nc(-c3nc4cc(N5CCN(C)CC5)cc(C)c4[nH]3)[nH]c12
5 | ≤ 5 | 10 to 15 | ≤ 5 | CCN1CCC2(CCN(CCc3ccc(NC(=O)c4ccc5[nH]c(-c6cc(-c7cccnc7OC)ccc6O)nc5c4)cc3)C2)C1 (stereo not drawn)
6 | ≤ 5 | 5 to 10 | ≤ 5 | COc1ncccc1-c1ccc(O)c(-c2nc3ccc(C(=O)Nc4ccc(CCN5CCCC6(CCCN(C)C6)C5)cc4)cc3[nH]2)c1 (stereo not drawn)
7 | ≤ 5 | 10 to 15 | ≤ 5 | COc1ncccc1-c1ccc2[nH]c(-c3nc4cc(N5CCN(C)CC5)ccc4[nH]3)nc2c1
8 | ≤ 5 | 10 to 15 | ≤ 5 | COc1ncccc1-c1ccc2[nH]c(-c3nc4cc(C(=O)Nc5ccc(CCN6CCN(C)CC6)cc5)ccc4[nH]3)nc2c1
9 | ≤ 5 | 5 to 10 | ≤ 5 | CCN1CCC2(CCN(CCc3ccc(NC(=O)c4ccc5[nH]c(-c6cc(-c7cccnc7O)ccc6O)nc5c4)cc3)C2)C1 (stereo not drawn) [drawing 1786]
10 | ≤ 5 | 10 to 15 | ≤ 5 | CN1CCCC2(CCCN(CCc3ccc(NC(=O)c4ccc5nc(-c6cc(-c7cccnc7O)ccc6O)[nH]c5c4)cc3)C2)C1 (stereo not drawn) [drawing 1788]
